The values below come from publication PMC4079752 (Clinical cancer research : an official journal of the …, 2014).

Broadly, the IC50 is the point on the concentration scale where inhibition reaches its midpoint. Higher therefore signals weaker potency.

The test addresses bacterial β-glucuronidase (E. coli GUS) (Escherichia coli, UniProt P05804). The experiment in a line: GUS enzyme activity assay with purified enzyme. The class given is biochemical.

Sequence of bacterial β-glucuronidase (E. coli GUS) (P05804 whole entry): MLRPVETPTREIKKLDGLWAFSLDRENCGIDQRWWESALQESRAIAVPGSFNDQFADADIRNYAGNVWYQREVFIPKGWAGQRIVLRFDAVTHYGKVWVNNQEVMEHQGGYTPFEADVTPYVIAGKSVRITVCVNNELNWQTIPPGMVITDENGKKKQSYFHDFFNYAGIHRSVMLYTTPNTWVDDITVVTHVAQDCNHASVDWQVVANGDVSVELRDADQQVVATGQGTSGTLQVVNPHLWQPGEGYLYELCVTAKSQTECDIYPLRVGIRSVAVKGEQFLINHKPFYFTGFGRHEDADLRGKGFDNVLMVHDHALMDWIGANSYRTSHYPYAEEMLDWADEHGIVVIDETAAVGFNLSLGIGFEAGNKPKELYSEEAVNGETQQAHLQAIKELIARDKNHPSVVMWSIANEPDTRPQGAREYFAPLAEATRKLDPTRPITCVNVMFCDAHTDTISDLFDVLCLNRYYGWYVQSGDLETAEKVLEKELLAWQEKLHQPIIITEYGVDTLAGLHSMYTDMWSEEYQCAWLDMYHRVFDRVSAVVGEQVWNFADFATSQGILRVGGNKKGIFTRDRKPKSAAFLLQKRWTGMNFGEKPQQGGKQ

Compound `Oc1ccc2c(c1)N=C(N1CCNCC1)c1cc(Cl)ccc1O2` [8-OHAMOX, 8-hydroxyamoxapine] registered an IC50 of 1990 nM. This counts as single-digit micromolar. For `Oc1ccc2c(c1)Oc1ccc(Cl)cc1C(N1CCNCC1)=N2` [7-OHAMOX, 7-hydroxyamoxapine] the value was 981 ± 183 nM.
